Laboratory results from patent publication US9326985B2, “Heteroaryl pyridone and aza-pyridone amide compounds” (Genentech, Inc., priority 2013, dated 2016).

Experiments:
[1] = test system: CD69 by B lymphocytes in human whole blood activated with goat F(ab')2 anti-human IgM; assay: CD69 Whole Blood Assay (CD69 Hu Blood FACS); format: cell-based; settings: Lymphocyte, CD69 positive of CD20 positive cells
Experimental: CD69 is a type II C-type lectin involved in lymphocyte migration and cytokine secretion.
Human blood is obtained from healthy volunteers, with the following restrictions: 1 week drug-free, non-smokers. Blood (approximately 20 mls to test 8 compounds) is collected by venipuncture into Vacutainer® (Becton, Dickinson and Co.) tubes with sodium heparin.
Solutions of Formula I compounds at 10 mM in DMSO are diluted 1:10 in 100% DMSO, then are diluted by three-fold serial dilutions in 100% DMSO for a ten point dose-response curve. The compounds are further diluted 1:10 in PBS and then an aliquot of 5.5 μl of each compound is added in duplicate to a 2 ml 96-well plate; 5.5 μl of 10% DMSO in PBS is added as control and no-stimulus wells. Human whole blood—HWB (100 μl) is added to each well. After mixing the plates are incubated at 37° C., 5% CO2, 100% humidity for 30 minutes. Goat F(ab′)2 anti-human IgM (10 μl of a 500 μg/ml solution, 50 μg/ml final) is added to each well (except the no-stimulus wells) with mixing and the plates are incubated for an additional 20 hours. At the end of the 20 hour incubation, samples are incubated with fluorescent labeled antibodies for 30 minutes, at 37° C., 5% CO2, 100% humidity. Include induced control, unstained and single stains for compensation adjustments and initial voltage settings. Samples are then lysed with PharM Lyse™ (BD Biosciences Pharmingen) according to the manufacturer's instructions. Samples are then transferred to a 96 well plate suitable to be run on the BD Biosciences HTS 96 well system on the LSRII machine. Data acquired and Mean Fluorescence Intensity values were obtained using BD Biosciences DIVA Software. Results are initially analyzed by FACS analysis software (Flow Jo).

[2] = target: T1, full length human wildtype Btk (Homo sapiens, UniProt Q06187); assay: Biochemical Btk Assay (BTK LC3K)
T1 construct: V5 (C); 6xHis (C); made in house; host or cells: Sf9 insect cells (baculovirus, pFastBac)
Experimental: A generalized procedure for a standard biochemical Btk, Kinase Assay that can be used to test Formula I compounds is as follows. A master mix minus Btk enzyme is prepared containing 1× Cell Signaling kinase buffer (25 mM Tris-HCl, pH 7.5, 5 mM beta-glycerophosphate, 2 mM dithiothreitol, 0.1 mM Na3VO4, 10 mM MgCl2), 0.5 μM Promega PTK Biotinylated peptide substrate 2, and 0.01% BSA. A master mix plus Btk enzyme is prepared containing 1× Cell Signaling kinase buffer, 0.5 μM (micromolar) PTK Biotinylated peptide substrate 2, 0.01% BSA, and 100 ng/well (0.06 mU/well) Btk enzyme. Btk enzyme is prepared as follows: full length human wildtype Btk (accession number NM-000061) with a C-terminal V5 and 6×His tag was subcloned into pFastBac® vector (Invitrogen/Life Technologies) for making baculovirus carrying this epitope-tagged Btk. […] Passage 3 virus is used to infect Sf9 cells to overexpress the recombinant Btk protein. The Btk protein is then purified to homogeneity using Ni-NTA column. […] A solution of 200 μM ATP is prepared in water and adjusted to pH 7.4 with 1N NaOH. A quantity of 1.25 μL (microliter) of compounds in 5% DMSO is transferred to a 96-well ½ area Costar polystyrene plate. Compounds are tested singly and with an 11-point dose-responsive curve (starting concentration is 10 μM; 1:2 dilution). A quantity of 18.75 μL of master mix minus enzyme (as a negative control) and master mix plus enzyme is transferred to appropriate wells in 96-well ½ area costar polystyrene plate. 5 μL of 200 μM ATP is added to that mixture in the 96-well ½ area Costar polystyrene plate for final ATP concentration of 40 μM. The reaction is allowed to incubate for 1 hour at room temperature. The reaction is stopped with Perkin Elmer 1× detection buffer containing 30 mM EDTA, 20 nM SA-APC, and 1 nM PT66 Ab. […] IC50 values are subsequently calculated. Alternatively, the Lanthascreen assay can be used to evaluate Btk activity through quantification of its phosphorylated peptide product. The FRET (Fluorescence Resonance Energy Transfer) that occurs between the fluorescein on the peptide product and the terbium on the detection antibody decreases with the addition of inhibitors of Btk that reduce the phosphorylation of the peptide. In a final reaction volume of 25 uL, Btk (h) (0.1 ng/25 ul reaction) is incubated with 50 mM Hepes pH 7.5, 10 mM MgCl2, 2 mM MnCl2, 2 mM DTT, 0.2 mM NaVO4, 0.01% BSA, and 0.4 uM fluorescein poly-GAT. […] After incubation for 60 minutes at room temperature, the reaction is stopped by the addition of a final concentration of 2 nM Tb-PY20 detection antibody in 60 mM EDTA for 30 minutes at room temperature.

T1 sequence (Q06187 whole entry): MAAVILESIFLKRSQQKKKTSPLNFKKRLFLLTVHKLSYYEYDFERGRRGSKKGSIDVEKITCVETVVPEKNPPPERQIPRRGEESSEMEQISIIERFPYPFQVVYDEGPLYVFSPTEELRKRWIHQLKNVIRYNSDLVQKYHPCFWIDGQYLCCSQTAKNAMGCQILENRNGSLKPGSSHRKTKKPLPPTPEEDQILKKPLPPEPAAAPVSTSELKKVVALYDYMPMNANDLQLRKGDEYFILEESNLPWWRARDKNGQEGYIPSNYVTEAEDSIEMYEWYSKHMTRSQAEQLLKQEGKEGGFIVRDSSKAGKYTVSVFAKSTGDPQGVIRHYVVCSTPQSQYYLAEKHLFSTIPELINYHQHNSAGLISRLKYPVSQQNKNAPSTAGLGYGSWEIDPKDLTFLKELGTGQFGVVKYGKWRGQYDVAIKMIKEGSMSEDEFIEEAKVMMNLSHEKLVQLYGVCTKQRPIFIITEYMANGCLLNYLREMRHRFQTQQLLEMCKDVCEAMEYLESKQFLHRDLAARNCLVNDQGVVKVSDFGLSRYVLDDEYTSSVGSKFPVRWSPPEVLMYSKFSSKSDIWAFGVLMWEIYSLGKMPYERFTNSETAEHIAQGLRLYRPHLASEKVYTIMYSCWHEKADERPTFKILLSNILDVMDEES

Structure (SMILES)	IC50 ([1]; Table 2, anti-IgM stimulation) [nM]	Ki ([2]; Table 2) [nM]	IC50 ([1]; Table 1, anti-IgM stimulation) [nM]	Ki ([2]; Table 1) [nM]
C[C@@H]1C[C@H]1C(=O)Nc1cc(-c2ccnc(N3CCn4c(cc5c4CC(C)(C)C5)C3=O)c2CO)cn(C)c1=O [Compound 138, (1R,2R)—N-[5-[2-(7,7-dimethyl-4-oxo-1,2,6,8-tetrahydrocyclopenta[3,4]pyrrolo[3,5-b]pyrazin-3-yl)-3-(hydroxymethyl)-4-pyridyl]-1-methyl-2-oxo-3-pyridyl]-2-methyl-cyclopropanecarboxamide]	2600	43.8		
Cn1cc(-c2ccnc(N3CCn4c(cc5c4CC(C)(C)C5)C3=O)c2CO)cc(NC(=O)CN2CCOCC2)c1=O [Compound 105, N-[5-[2-(7,7-dimethyl-4-oxo-1,2,6,8-tetrahydrocyclopenta[3,4]pyrrolo[3,5-b]pyrazin-3-yl)-3-(hydroxymethyl)-4-pyridyl]-1-methyl-2-oxo-3-pyridyl]-2-morpholino-acetamide]			> 5000	> 55.6
CCNC(=O)Nc1cc(-c2ccnc(N3CCn4c(cc5c4CC(C)(C)C5)C3=O)c2CO)cn(C)c1=O [Compound 159, 1-[5-[2-(7,7-dimethyl-4-oxo-1,2,6,8-tetrahydrocyclopenta[3,4]pyrrolo[3,5-b]pyrazin-3-yl)-3-(hydroxymethyl)-4-pyridyl]-1-methyl-2-oxo-3-pyridyl]-3-ethyl-urea]	133	1.6		
Cn1cc(-c2ccnc(N3CCn4c(cc5c4CC(C)(C)C5)C3=O)c2CO)cc(NC(=O)[C@H]2CC23CCC3)c1=O (single isomer, unassigned) [Compound 147]	910	4.8		
Cn1cc(-c2ccnc(-n3ncc4cc(C(C)(C)C)cc(F)c4c3=O)c2CO)cc(NC(=O)[C@H]2CC23CC3)c1=O (single isomer, unassigned) [Compound 162]	786	5		
Cn1cc(-c2ccnc(N3CCn4c(cc5c4CC(C)(C)C5)C3=O)c2CO)cc(NC(=O)c2cnco2)c1=O [Compound 115, N-[5-[2-(7,7-dimethyl-4-oxo-1,2,6,8-tetrahydrocyclopenta[3,4]pyrrolo[3,5-b]pyrazin-3-yl)-3-(hydroxymethyl)-4-pyridyl]-1-methyl-2-oxo-3-pyridyl]oxazole-5-carboxamide]			> 3200	> 500
Cn1cc(-c2ccnc(N3CCc4c(sc5c4CC(C)(C)C5)C3=O)c2CO)cc(NC(=O)C2CC2)c1=O [Compound 131, N-[5-[2-(7,7-dimethyl-4-oxo-1,2,6,8-tetrahydrocyclopenta[3,4]thieno[1,3-c]pyridin-3-yl)-3-(hydroxymethyl)-4-pyridyl]-1-methyl-2-oxo-3-pyridyl]cyclopropanecarboxamide]	240	7.06		
CN(C)C(=O)C1C[C@H]1C(=O)Nc1cc(-c2ccnc(-n3ncc4cc(C(C)(C)C)cc(F)c4c3=O)c2CO)cn(C)c1=O (single isomer, unassigned) [Compound 170, N2-[5-[2-(6-tert-butyl-8-fluoro-1-oxo-phthalazin-2-yl)-3-(hydroxymethyl)-4-pyridyl]-1-methyl-2-oxo-3-pyridyl]-N1,N1-dimethyl-cyclopropane-1,2-dicarboxamide]	> 4800	25		
CN1CC[C@]2(C[C@H]2C(=O)Nc2cc(-c3ccnc(-n4ncc5cc(C(C)(C)C)cc(F)c5c4=O)c3CO)cn(C)c2=O)C1 (single isomer, unassigned) [Compound 169]	> 4800	38.4		
Cn1cc(-c2ccnc(N3CCn4c(cc5c4CC(C)(C)C5)C3=O)c2CO)cc(NC(=O)C2CC2(F)F)c1=O (centres unmarked) [Compound 116, N-[5-[2-(7,7-dimethyl-4-oxo-1,2,6,8-tetrahydrocyclopenta[3,4]pyrrolo[3,5-b]pyrazin-3-yl)-3-(hydroxymethyl)-4-pyridyl]-1-methyl-2-oxo-3-pyridyl]-2,2-difluoro-cyclopropanecarboxamide]			988	34.8
CCOC1C[C@@H]1C(=O)Nc1cc(-c2ccnc(N3CCn4c(cc5c4CC(C)(C)C5)C3=O)c2CO)cn(C)c1=O (mixture of isomers) [Compound 145, (1S)—N-[5-[2-(7,7-dimethyl-4-oxo-1,2,6,8-tetrahydrocyclopenta[3,4]pyrrolo[3,5-b]pyrazin-3-yl)-3-(hydroxymethyl)-4-pyridyl]-1-methyl-2-oxo-3-pyridyl]-2-ethoxy-cyclopropanecarboxamide]	636	11		
Cn1cc(-c2cc(F)cc(N3CCn4c(cc5c4CC(C)(C)C5)C3=O)c2CO)cc(NC(=O)[C@H]2C[C@H]2F)c1=O [Compound 176, (1R,2R)—N-[5-[3-(7,7-dimethyl-4-oxo-1,2,6,8-tetrahydrocyclopenta[3,4]pyrrole[3,5-b]pyrazin-3-yl)-5-fluoro-2-(hydroxymethyl)phenyl]-1-methyl-2-oxo-3-pyridyl]-2-fluoro-cyclopropanecarboxamide]	32.7	2.1		
Cn1cc(-c2ccnc(-n3ncc4cc(C(C)(C)C)cc(F)c4c3=O)c2CO)cc(NC(=O)[C@@H]2CC23CC3)c1=O (single isomer, unassigned) [Compound 161]	338	3.7		
CN1CC[C@@]2(C[C@@H]2C(=O)Nc2cc(-c3ccnc(-n4ncc5cc(C(C)(C)C)cc(F)c5c4=O)c3CO)cn(C)c2=O)C1 (single isomer, unassigned) [Compound 174]	1500	7.2		
CCC(=O)Nc1cc(-c2ccnc(-n3ncc4cc(C(C)(C)C)cc(F)c4c3=O)c2CO)cn(C)c1=O [Compound 126, N-[5-[2-(6-tert-butyl-8-fluoro-1-oxo-phthalazin-2-yl)-3-(hydroxymethyl)-4-pyridyl]-1-methyl-2-oxo-3-pyridyl]propanamide]			527	7.01
Cn1cc(-c2cccc(N3CCc4c(cc5n4CC(C)(C)C5)C3=O)c2CO)cc(NC(=O)C2CC2)c1=O [Compound 142, N-[5-[3-(7,7-dimethyl-4-oxo-1,2,6,8-tetrahydropyrido[3,4-b]pyrrolizin-3-yl)-2-(hydroxymethyl)phenyl]-1-methyl-2-oxo-3-pyridyl]cyclopropanecarboxamide]	70	1.8		
CC(=O)Nc1cc(-c2ccnc(-n3ncc4cc(C(C)(C)C)cc(F)c4c3=O)c2CO)cn(C)c1=O [Compound 127, N-[5-[2-(6-tert-butyl-8-fluoro-1-oxo-phthalazin-2-yl)-3-(hydroxymethyl)-4-pyridyl]-1-methyl-2-oxo-3-pyridyl]acetamide]			335	10.8
Cn1cc(-c2ccnc(-c3nc4ccc(C(C)(C)C)cc4n3C)c2CO)cc(NC(=O)C2CC2)c1=O [Compound 160, N-[5-[2-(6-tert-butyl-1-methyl-benzimidazol-2-yl)-3-(hydroxymethyl)-4-pyridyl]-1-methyl-2-oxo-3-pyridyl]cyclopropanecarboxamide]	> 3500	25.7		
CN1CCC2(CC1)C[C@@H]2C(=O)Nc1cc(-c2ccnc(-n3ncc4cc(C(C)(C)C)cc(F)c4c3=O)c2CO)cn(C)c1=O (single isomer, unassigned) [Compound 166]	1600	5.4		
